Data set [1] relates to CYP related genes. The data set is described as follows: qRT-PCR of CYP related genes in induced hepatocytes after drug treatment. The format is cell-based, mouse. Particulars: iHep; 25 mM 3-Mc, 1 uM Dex or 50 mM ethanol; 72 hrs; versus DMSO control. The method, then:
Total RNA was extracted and cDNA was synthesized in the same method as Example 1. qRT-PCR was performed using synthesized cDNA. mRNA expression of specific genes was confirmed using SYBR Green I Master (Roche, 04887352001) and primers in LightCycler® 480 equipment. The average value was calculated for three analyzes and normalized using Gapdh (5′-[…]-3′ (SEQ ID NO: 94) and 5′-[…]-3′ (SEQ ID NO: 95)). The expression level of mRNA was compared using comparative Ct method. Primer sequences used in qRT-PCR were shown below (sequences below were represented in the 5′ to 3′ direction).
The CYP family members were known to be regulated by aryl hydrocarbon receptor (AhR), constitutive androstane receptor (CAR), pregnane X receptor (PXR), and nuclear receptor which were abundantly found in liver tissue. In order to confirm whether hepatocytes induce CYP when a stimulus was given to such receptors, chemical compounds such as 3-methylcholanthrene (3Mc) which acts on aryl hydrocarbon receptors (Cyp1 family members) and glucocorticoid (Dex, dexamethasone) which acts on glucocorticoid receptors (glucocorticoid receptor regulating CAR and PXR is upstream of Cyp2/3 family members) were treated to receptors.
Specifically, cells were cultured with 60% confluency in HEP medium in which dexamethasone was not added. […]

Data set [2] has as its system hepatocytes. Particulars: 50 mM EtOH for 48 hrs.

Consider `Cc1ccc2cc3c(ccc4ccccc43)c3c2c1CC3` [3-methylcholanthrene], for which the “expression of CYP family genes (mRNA)” value in data set [1] is reported as “induced”.
Turning to `CCO` [ethanol], the “accumulation of fats and droplets in cytoplasm of hepatocytes” value in data set [2] is reported as “accumulation of fats”.

These data come from US11732240B2, “Direct conversion method of somatic cell into Hepatic stem cell, hepatic cell, or cholangiocyte” (UNIST(ULSAN NATIONAL INSTITUTE OF SCIENCE AND TECHNOLOGY), priority 2016, dated 2023).
